Measurements: article PMC6033896, “Discovery of Mcl-1 inhibitors from integrated high throughput and virtual screening” (Scientific Reports, 2018)

Experiments:
Bcl-2 = assay: FP-based competitive binding assay with FAM-Bid; parameters: species or system human; conditions: ratio of Ki
mutant Mcl-1 R263A = biological target: T1, mutant Mcl-1 R263A (Homo sapiens, UniProt Q07820, R263A); assay: BLI-based direct binding assay; conditions: compared with wild-type Mcl-1
T1 construct: human Mcl-1 (residues 171–323); His tag (pHis-TEV vector) (N); made in house; host or cells: E. coli Rosetta2 DE3
Procedure: Mcl-1 and mutant Mcl-1 R263A proteins were biotinylated using the Thermo EZ-link Sulpho-NHS-LC-biotin biotinylation kit (cat. 21435). Protein and biotin were mixed in a 1:1 molar ratio in PBS on ice for 2 hours. The reaction mixture was dialyzed in PBS buffer to remove excess biotin. BLI experiments were performed using an OctetRED96 instrument from PALL/ForteBio. All experiments were performed at 30 °C using PBS (Gibco, #10010-23), and 0.005% Tween 20 as the assay buffer. Assays were conducted in 96-well, black, microplates (Greiner bio-one, #655209) containing the protein solutions for immobilization, pure assay buffer for dissociation, and serial dilutions of compounds in the presence of 5% DMSO to be tested. During the experiment, sample plates were continuously shaken at 1000 rpm. Biotinylated proteins were immobilized on Super Streptavidin (SSA) biosensors by dipping sensors into plate wells containing protein solutions. Biotinylated blocked Streptavidin sensors were used as control sensors prepared by the protocol provided from the manufacturer. Association (3 Minutes) and dissociation (3 Minutes) cycles of compounds were started by dipping sensors to compound wells with different tested concentrations as well as in pure buffer wells. Buffer-only reference was included in all assays. […]

15N-labeled Mcl-1 = biological target: T2, 15N-labeled Mcl-1 (Homo sapiens, UniProt Q07820); assay: 1H,15N HSQC NMR chemical shift perturbation; conditions: direct binding to Mcl-1
T2 construct: human Mcl-1 (residues 171–323); made in house; host or cells: E. coli (bacteria grown on M9 minimal medium with 15N ammonium sulphate)
Procedure: NMR studies were performed as previously described. In brief, the ^15N-labeled Mcl-1 protein was prepared and purified using the same protocol as for unlabelled protein with the exception that the bacteria were grown on M9 minimal media supported with 1 g/L of (^15NH4)2SO4. Protein samples were prepared in a 20 mM sodium phosphate, 150 mM NaCl and 1 mM DTT solution at pH 7 in 7% D2O. The binding mode of compounds has been characterized with a solution of uniformly ^15N-labeled Mcl-1 (75 μM) in the absence and presence of added compounds (in 1 or 6% final DMSO) with the indicated molar ratio concentrations. The total volume of each sample was 150 μL and samples were prepared in Bruker tubes (Bruker, # Z117724). All Spectra were acquired at 30 °C on a Bruker 600 MHz NMR spectrometer equipped with a cryogenic probe, processed using Bruker TopSpin and rNMR, and were analysed with Sparky. Plots of chemical shift changes were calculated as ((Δ^1H ppm)2 + (0.2(Δ^15N ppm))2)0.5 of Mcl-1 amide upon addition of compound. The absence of a bar in a chemical shift plot indicates no chemical shift difference or the presence of a proline or residue that is overlapped or not assigned. The cutoff threshold for determining the significance of the chemical shift was based on one standard deviation above the average of all chemical shifts.

T1 sequence (Q07820 171-323 R263A): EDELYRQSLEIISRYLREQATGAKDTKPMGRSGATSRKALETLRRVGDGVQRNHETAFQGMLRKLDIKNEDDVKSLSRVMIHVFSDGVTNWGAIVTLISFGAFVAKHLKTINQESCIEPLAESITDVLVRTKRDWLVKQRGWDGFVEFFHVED
T2 sequence (Q07820 171-323): as the sequence (Q07820 171-323 R263A) above, with A93R counted along it

SMILES | fold lower binding affinity to Bcl-2 than to Mcl-1 (Bcl-2) [fold] | binding to mutant R263A Mcl-1 (BLI) (mutant Mcl-1 R263A) | chemical shift perturbations of Mcl-1 amides (HSQC NMR) (15N-labeled Mcl-1)
O=C(CSc1nnc(-c2ccco2)c(-c2ccco2)n1)Nc1cccc(C(F)(F)F)c1 [Compound 39] | > 20 |  | 
O=C(CSc1nnc(-c2ccco2)c(-c2ccco2)n1)Nc1ccccc1 [Compound 19] |  | no appreciable binding | concentration-dependent perturbations
